Experiments:
[1] = CellTiter-Glo (CTG) cytotoxicity in MT4-GFP cells; conditions: human
HIV-1 [2] = assay: Multicycle antiviral assay in MT4-GFP cells; type: cell-based; conditions: 10% NHS
Protocol: Compounds were evaluated for their ability to prevent HIV-1 infection in MT4-GFP cells as described in Diamond, and colleagues. HIV-1 replication was monitored using the MT4-gag-GFP clone D3, and MT4 cells with a GFP reporter gene, the expression of which is dependent on the HIV-1 expressed proteins tat and rev. […] Proviral variants used for these studies were generated by site-directed mutagenesis in the WT R8 proviral plasmid. Virus was produced by transfection in 293T cells.
Briefly, MT4-GFP cells were cultured overnight with the appropriate HIV-1 variant at an approximate multiplicity of infection of 0.01. After approximately 19 h of infection, the cells were washed and resuspended in assay media containing 10% normal human serum (NHS) before being added to 384-well compound plates containing 10-point serial 3-fold dilutions of compound. Controls included no inhibitor (dimethyl sulfoxide [DMSO] only) and a combination of 3 antiviral agents, efavirenz, indinavir, and an integrase strand transfer inhibitor, L-002254051, at final concentrations of 4 µM each. The infected or treated cells were cultured at 37 °C, 5% CO2, and 90% humidity until evaluation of infection was conducted at approximately 48 and 72 h post-infection by counting the number of GFP cells in each well using an Acumen eX3 scanner (SPT Labtech; Melbourn, UK). The reproductive ratio, R, was calculated by dividing the number of infected cells at 72 h by the number at 48 h post-infection. The percentage inhibition caused by a test compound was calculated by the following formula:
inhibition = [1−(Rtest compound − Rpositive control)]/(RDMSO only − Rpositive control) × 100%\]
The dose–response curves of each test compound were plotted as percentage inhibition versus the test concentration.

HIV-1 [3] = assay: Single-cycle antiviral assay in PBMCs; type: cell-based
Protocol: To evaluate the ability of inhibitors to prevent HIV-1 infection in primary cells, human PBMCs obtained from Biological Specialty Corporation (Colmar, PA, USA) were used to assess antiviral activity. The proviral variants used for these studies were generated by site-directed mutagenesis in a proviral vector derived from NL43 [52] that encodes GFP (pNLG1-P2A-GFP). Virus was produced by transfection in 293T cells.
PBMCs were activated with phytohemagglutinin (PHA) at 5 μg/mL in Roswell Park Memorial Institute (RPMI) 1640 medium containing 10% heat-inactivated fetal bovine serum (FBS) for 2–3 days. Compound plates were prepared by dispensing compounds dissolved in DMSO into 384-well poly-d-lysine-coated plates (0.2 μL per well) using an Echo acoustic dispenser (Labcyte; San Jose, CA, USA). Each compound was tested in a 10-point serial 3-fold dilution (typical final concentrations: 5,000 to 0.1 nM). Controls included no inhibitor (DMSO only) and a combination of 3 antiviral agents, efavirenz, indinavir, and the integrase strand transfer inhibitor, L-002254051, at final concentrations of 4 μM each. PHA-activated human PBMCs were washed and resuspended in RPMI 1640 containing 10% NHS and 30 units per mL of interleukin-2 (IL-2) at 6 × 10^5 cells per mL. PBMCs were added to the compound plates and cultured for 24 h at 37 °C, 5% CO2, and 90% humidity. The appropriate HIV-1 variant was added to the PBMCs and cultured at 37 °C, 5% CO2, and 90% humidity for an additional 24 h.
HIV-1–infected cells were quantified by counting the number of GFP cells in each well using an Acumen eX3 scanner (SPT Labtech; Melbourn, UK).

MT4-GFP cells = assay: CellTiter-Glo (CTG) cytotoxicity in MT4-GFP cells; conditions: read-out: MT4-GFP CTG CC50, CellTiter-Glo
[4] = Human immunodeficiency virus 1, WT HIV-1, multicycle assay
[5] = Human immunodeficiency virus 1, PBMC, read-out: PBMC IC50, HIV-1, single-cycle assay, human PBMCs, 10% NHS

C#C[C@]1(CO)O[C@@H](n2cnc3c(N)nc(Cl)nc32)C[C@@H]1O [Compound 1, (2R,3S,5R)-5-(6-amino-2-chloro-9H-purin-9-yl)-2-ethynyl-2-(hydroxymethyl)-tetrahydrofuran-3-ol]
CC50 [1]: > 42000 nM
IC50 (HIV-1 [2]; [4]): 2.7 nM
IC50 (HIV-1 [3]; [5]): 0.4 nM

C#C[C@]1(CO)O[C@@H](n2cnc3c(N)nc(C)nc32)C[C@@H]1O [Compound 2, (2R,3S,5R)-5-(6-amino-2-methyl-9H-purin-9-yl)-2-ethynyl-2-(hydroxymethyl)-tetrahydrofuran-3-ol]
CC50 [1]: > 42000 nM
IC50 (HIV-1 [2]; [4]): 109 nM
IC50 (HIV-1 [3]; [5]): 35.9 nM

C#C[C@]1(CO)O[C@@H](n2cnc3c(N)nc(C(F)(F)F)nc32)C[C@@H]1O [Compound 3, (2R,3S,5R)-5-(6-amino-2-(trifluoromethyl)-9H-purin-9-yl)-2-ethynyl-2-(hydroxymethyl)tetrahydrofuran-3-ol]
CC50 [1]: > 42000 nM
IC50 (HIV-1 [2]; [4]): > 42000 nM
IC50 (HIV-1 [3]; [5]): > 11900 nM

C#C[C@]1(CO)O[C@@H](n2cnc3c(NC4CC4)nc(F)nc32)C[C@@H]1O [Compound 4, (2R,3S,5R)-5-(6-(cyclopropylamino)-2-fluoro-9H-purin-9-yl)-2-ethynyl-2-(hydroxymethyl)tetrahydrofuran-3-ol]
CC50 [1]: > 42000 nM
IC50 (HIV-1 [2]; [4]): 4300 nM
IC50 (HIV-1 [3]; [5]): 3290 nM

C#C[C@]1(CO)O[C@@H](n2ccc3c(N)ncnc32)C[C@@H]1O [Compound 5, (2R,3S,5R)-5-(4-amino-7H-pyrrolo[2,3-d]pyrimidin-7-yl)-2-ethynyl-2-(hydroxymethyl)tetrahydrofuran-3-ol]
CC50 [1]: 30800 nM
IC50 (HIV-1 [2]; [4]): 1.9 nM
IC50 (HIV-1 [3]; [5]): 0.9 nM

C#C[C@]1(CO)O[C@@H](n2c(C)cc3c(N)ncnc32)C[C@@H]1O [Compound 6, (2R,3S,5R)-5-(4-amino-6-methyl-7H-pyrrolo[2,3-d]pyrimidin-7-yl)-2-ethynyl-2-(hydroxymethyl)tetrahydrofuran-3-ol]
CC50 [1]: > 42000 nM
IC50 (HIV-1 [2]; [4]): > 2000 nM
IC50 (HIV-1 [3]; [5]): > 2000 nM

C#C[C@]1(CO)O[C@@H](n2cc(C)c3c(N)ncnc32)C[C@@H]1O [Compound 7, (2R,3S,5R)-5-(4-amino-5-methyl-7H-pyrrolo[2,3-d]pyrimidin-7-yl)-2-ethynyl-2-(hydroxymethyl)tetrahydrofuran-3-ol]
CC50 [1]: > 42000 nM
IC50 (HIV-1 [2]; [4]): 1680 nM
IC50 (HIV-1 [3]; [5]): 682 nM

C#C[C@]1(CO)O[C@@H](n2cc(-c3ccn[nH]3)c3c(N)ncnc32)C[C@@H]1O [Compound 10, (2R,3S,5R)-5-(4-amino-5-(1H-pyrazol-5-yl)-7H-pyrrolo[2,3-d]pyrimidin-7-yl)-2-ethynyl-2-(hydroxymethyl)tetrahydrofuran-3-ol]
CC50 [1]: > 42000 nM
IC50 (HIV-1 [2]; [4]): 1590 nM
IC50 (HIV-1 [3]; [5]): 907 nM

C#C[C@]1(CO)O[C@@H](n2ccc3c(N)nc(F)nc32)C[C@@H]1O [Compound 11, (2R,3S,5R)-5-(4-amino-2-fluoro-7H-pyrrolo[2,3-d]pyrimidin-7-yl)-2-ethynyl-2-(hydroxymethyl)tetrahydrofuran-3-ol]
CC50 [1]: > 42000 nM
IC50 (HIV-1 [2]; [4]): 16.8 nM
IC50 (HIV-1 [3]; [5]): 10.5 nM

C#C[C@]1(CO)O[C@@H](n2cc(F)c3c(N)nc(Cl)nc32)C[C@@H]1O [Compound 13, (2R,3S,5R)-5-(4-amino-2-chloro-5-fluoro-7H-pyrrolo[2,3-d]pyrimidin-7-yl)-2-ethynyl-2-(hydroxymethyl)tetrahydrofuran-3-ol]
CC50 [1]: > 42000 nM
IC50 (HIV-1 [2]; [4]): 2.4 nM
MT4-GFP IC50 (HIV-1 [2]; WT HIV-1, multicycle assay): single-digit nanomolar potency
PBMC IC50 (HIV-1 [3]; HIV-1, single-cycle assay, human PBMCs, 10% NHS): subnanomolar potency
IC50 (HIV-1 [3]; [5]): 0.2 nM

C#C[C@]1(CO)O[C@@H](n2ccc3c(N)nc(N)nc32)C[C@@H]1O [Compound 14, (2R,3S,5R)-5-(2,4-diamino-7H-pyrrolo[2,3-d]pyrimidin-7-yl)-2-ethynyl-2-(hydroxymethyl)tetrahydrofuran-3-ol]
CC50 [1]: > 42000 nM
IC50 (HIV-1 [2]; [4]): 277 nM
IC50 (HIV-1 [3]; [5]): 257 nM

C#C[C@]1(CO)O[C@@H](n2nnc3c(N)ncnc32)C[C@@H]1O [Compound 15, (2R,3S,5R)-5-(7-amino-3H-[1,2,3]triazolo[4,5-d]pyrimidin-3-yl)-2-ethynyl-2-(hydroxymethyl)tetrahydrofuran-3-ol]
CC50 [1]: > 42000 nM
IC50 (HIV-1 [2]; [4]): 7590 nM
MT4-GFP IC50 (HIV-1 [2]; WT HIV-1, multicycle assay): completely inactive
IC50 (HIV-1 [3]; [5]): 7570 nM

C#C[C@]1(CO)O[C@@H](c2ccc3c(N)ncnn23)C[C@@H]1O [Compound 16, (2R,3S,5R)-5-(4-aminopyrrolo[2,1-f][1,2,4]triazin-7-yl)-2-ethynyl-2-(hydroxymethyl)tetrahydrofuran-3-ol]
CC50 [1]: 22300 nM
IC50 (HIV-1 [2]; [4]): 21.6 nM
IC50 (HIV-1 [3]; [5]): 19.2 nM

C#CC1(CO)CC(n2cnc3c(N)nc(F)nc32)CC1O (stereo not drawn) [Compound 17, 4-(6-amino-2-fluoro-9H-purin-9-yl)-2-ethynyl-2-(hydroxy-methyl)cyclopentan-1-ol]
CC50 [1]: > 42000 nM
IC50 (HIV-1 [2]; [4]): 5020 nM
IC50 (HIV-1 [3]; [5]): 383 nM

C#CC1(CO)CC(n2cnc3c(N)nc(Cl)nc32)CC1O (stereo not drawn) [Compound 18, 4-(6-amino-2-chloro-9H-purin-9-yl)-2-ethynyl-2-(hydroxy-methyl)-cyclopentan-1-ol]
CC50 [1]: > 42000 nM
IC50 (HIV-1 [2]; [4]): 22700 nM
IC50 (HIV-1 [3]; [5]): 982 nM

C#C[C@]1(CO)C[C@@H](n2ccc3c(N)nc(Cl)nc32)C[C@@H]1O [Compound 19, (1S,2S,4R)-4-(4-amino-2-chloro-7H-pyrrolo[2,3-d]pyrimidin-7-yl)-2-ethynyl-2-(hydroxymethyl)cyclopentan-1-ol]
CC50 [1]: > 42000 nM
IC50 (HIV-1 [2]; [4]): 22600 nM
IC50 (HIV-1 [3]; [5]): 1160 nM

C#C[C@]1(CO)C[C@@H](n2cnc3c(=O)[nH]c(N)nc32)C[C@@H]1O [Compound 20, 2-amino-9-((1R,3S,4S)-3-ethynyl-4-hydroxy-3-(hydroxymethyl)-cyclopentyl)-1,9-dihydro-6H-purin-6-one]
CC50 [1]: > 42000 nM
IC50 (HIV-1 [2]; [4]): 103 nM
IC50 (HIV-1 [3]; [5]): 20.4 nM

(2R,3S,5R)-5-(4-amino-5-fluoro-7H-pyrrolo[2,3-d]pyrimidin-7-yl)-2-ethynyl-2-(hydroxymethyl)tetrahydrofuran-3-ol [Compound 9]
CC50 (MT4-GFP cells): > 42000 nM
IC50 (HIV-1 [2]; WT HIV-1, multicycle assay): 37200 nM
IC50 (HIV-1 [3]; HIV-1, single-cycle assay, human PBMCs, 10% NHS, read-out: PBMC IC50): 3410 nM

Reference: publication PMC12380353, “MK-8527 is a novel inhibitor of HIV-1 reverse transcriptase translocation with potential for extended-duration dosing” (PLOS Biology, 2025)
